Earlier results on 13 compounds are cited in patent US7858570B2, “Compositions and methods for removing urushiol and treating the resulting skin condition” (priority 2004, dated 2010).

The conditions of series [1]: for cloud point: 1% H2O.
The test system of series [2] is human immuno deficiency virus. The following applies: in the test tube.
For series [3] the following is noted: in vivo.

With `NC(=O)NC1NC(=O)NC1=O` (centres unmarked) [allantoin, glyoxyl-diureide], the solubility in water (at 25° C.) is listed as 0.5%. Moreover, the “solubility (in words)” value (water and alcohol) was “soluble in water and alcohol”.

As to “nonylphenol ethoxylate [4 mol nonylphenol ethoxylate]”, the cloud point result in series [1] was “less than 25 °C”.

For “nonylphenol ethoxylate [2 mol nonylphenol ethoxylate]”, the cloud point result in series [1] is “less than 25 °C”.

Consider “nonylphenol ethoxylate [10 mol nonylphenol ethoxylate]”, for which the pH in series [1] (10% sol.) is given as 6.3.

Consider “nonylphenol ethoxylate [5 mol nonylphenol ethoxylate]”, for which the cloud point entry in series [1] was “less than 25 °C”.

In the case of `CCCCCCCCCc1ccc(OCCOCCOCCOCCOCCOCCOCCOCCOCCO)cc1` [nonoxynol-9, nonylphenoxypolyethoxyethanol], the “concentration in a solution that stops HIV from reproducing” value in series [2] was 0.05%.

For “nonylphenol ethoxylate [14 mol nonylphenol ethoxylate]”, in series [1], the cloud point was 92-99 °C.

In the case of “nonylphenol ethoxylate [50 mol nonylphenol ethoxylate]”, the cloud point entry in series [1] was “greater than 100 °C”.

On to “nonylphenol ethoxylate [12 mol nonylphenol ethoxylate]”, for which the cloud point in series [1] was 78-83 °C.

With urushiol, the “time from skin exposure until rash breaks out” value in series [3] is 24 to 72 h.

For “nonylphenol ethoxylate [8 mol nonylphenol ethoxylate]”, the cloud point entry in series [1] was “less than 25 °C”.

As for “nonylphenol ethoxylate [6 mol nonylphenol ethoxylate]”, the cloud point result in series [1] is “less than 25 °C”.

As to “nonylphenol ethoxylate [30 mol nonylphenol ethoxylate]”, the cloud point entry in series [1] is “greater than 100 °C”.
